In patent US6310095A, “Inhibitors of protein isoprenyl transferases” (University of Pittsburgh, priority 1998, dated 2001):
Counter-ions that a name gives are not always drawn.

Molecular target: T1, protein farnesyltransferase (Rattus norvegicus, UniProt Q02293+Q04631)
T1 construct: Rat brain protein farnesyltransferase activity is measured; from tissue; host or cells: rat brain; purified according to Reiss et al., Cell 62:81-88 (1990), steps one through three
Assay: in vitro inhibition of protein farnesyltransferase (scintillation proximity assay, biotin-K Ras B fragment)
Assay type: biochemical
Conditions: at 1 × 10^-5 M
From the text: The ability of the compounds of the invention to inhibit protein farnesyltransferase or protein geranylgeranyltransferase can be measured according to the method of Moores, et al., J. Biol. Chem. 266: 14603 (1991) or the method of Vogt, et al., J. Biol. Chem. 270:660-664 (1995). In addition, procedures for determination of the inhibition of farnesylation of the oncogene protein Ras are described by Goldstein, et al., J. Biol. Chem., 266:15575-15578 (1991) and by Singh in U.S. Pat. No. 5,245,061.
In addition, in vitro inhibition of protein farnesyltransferase may be measured by the following procedure. Rat brain protein farnesyltransferase activity is measured using an Amersham Life Science commercial scintillation proximity assay kit and substituting a biotin-K Ras B fragment (biotin-[…]CO2 H), 0.1 mM final concentration, for the biotin-lamin substrate provided by Amersham. The enzyme is purified according to Reiss, Y., et al., Cell, 62: 81-88 (1990), utilizing steps one through three.
The % inhibition of protein farnesyltransferase was determined for representative compounds of the invention.

Going from `CSCC[C@H](NC(=O)c1ccc(CNc2ccc3c(c2)Cc2ccccc2-3)cc1-c1ccccc1)C(=O)O` [Example 706] to `CSCC[C@H](NC(=O)c1ccc(CNc2cccc(N(C)C)c2)cc1-c1ccccc1)C(=O)O` [Example 683], the inhibition at 10 µM rises from 53% to 57%.

Compared with `CSCC[C@H](NC(=O)c1ccc(NC(=O)Cc2ccccc2[N+](=O)[O-])cc1-c1ccccc1)C(=O)O` [Example 757], `COc1ccc(Br)c(C(=O)Nc2ccc(C(=O)N[C@@H](CCSC)C(=O)O)c(-c3ccccc3)c2)c1` [Example 754] is lower in inhibition at 10 µM: 58% for the first, 40% for the second.

Molecule `CSCC[C@H](NC(=O)c1ccc(CNc2cccc(CCC(=O)O)c2)cc1-c1ccccc1)C(=O)O` [Example 685] has an inhibition at 10 µM of 55%.

Same assay, conditions: at 1 × 10^-6 M

First: Cc1ccccc1-c1cc(CCc2cccc(Oc3ccccc3)c2)ccc1C(=O)N[C@@H](CC[S+](C)[O-])C(=O)O (some centres unmarked) [Example 460]
Second: CSCC[C@H](NC(=O)c1ccc(CCc2cnc(Oc3ccccc3)cn2)cc1-c1ccccc1C)C(=O)O [Example 813]
The “% inhibition of farnesyltransferase” value of the first is lower: 88% for the first, 95% for the second.

First: Cc1ccccc1-c1cc(CN(C2CC2)C(C)(C)CC2CCCCC2)ccc1C(=O)N[C@@H](CCS(C)(=O)=O)C(=O)O [Example 320]
Second: CSCC[C@H](NC(=O)c1ccc(CSC2CCCCC2)cc1-c1ccccc1C)C(=O)[O-].[Li+] [Example 550]
The “% inhibition of farnesyltransferase” value of the first is lower: 93% for the first, 96% for the second.

Going from `CSCC[C@H](NC(=O)c1ccc(COCc2ccsc2)cc1-c1ccccc1C)C(=O)[O-].[Li+]` [Example 274] to `CSCC[C@H](NC(=O)c1ccc(COCc2ccccc2)cc1-c1ccccc1)C(=O)O` [Example 575], the “% inhibition of farnesyltransferase” value falls from 94% to 70%.

First: CSCC[C@H](NC(=O)c1ccc(/C=C/c2cnccn2)cc1-c1ccccc1C)C(=O)O [Example 495]
Second: CSCC[C@H](NC(=O)c1ccc(C=Cc2ccccc2Cc2ccccc2)cc1-c1ccccc1C)C(=O)[O-].[Li+] [Example 457]
The “% inhibition of farnesyltransferase” value of the first is higher: 95% for the first, 92% for the second.

First: CSCC[C@H](NC(=O)c1ccc(S(=O)(=O)NCCN2CCCCC2)cc1-c1ccccc1C)C(=O)O [Example 774]
Second: CSCC[C@H](NC(=O)c1ccc(S(=O)(=O)N(Cc2ccccc2)c2ccccc2)cc1-c1ccccc1C)C(=O)[O-].[Li+] [Example 768]
The “% inhibition of farnesyltransferase” value of the first is lower: 48% for the first, 67% for the second.

For `CSCC[C@H](NC(=O)c1ccc(COCC2CCCO2)cc1-c1ccccc1)C(=O)O` (some centres unmarked) [Example 288], the “% inhibition of farnesyltransferase” value was 22%.

Same assay, conditions: at 1 × 10^-6 M; read-out: % inhibition of farnesyltransferase

Going from `CSCC[C@H](NC(=O)c1ccc(NC(=O)OCCCl)cc1-c1ccccc1)C(=O)O` [Example 979, N-[4-(N-2-chloroethoxycarbonyl)amino-2-phenylbenzoyl]methionine] to `COc1ccccc1CCC(=O)Nc1ccc(C(=O)N[C@@H](CCSC)C(=O)O)c(-c2ccccc2C)c1` [Example 544, N-[4-N-(3-(2-methoxyphenyl)propionoyl)amino-2-(2-methylphenyl)benzoyl]methionine lithium salt], the inhibition at 1 µM rises from 26% to 35%.

For `CSCC[C@H](NC(=O)c1ccc(CNc2ccc(N3CCCCC3)cc2)cc1-c1ccccc1C)C(=O)O` [Example 862, N-[4-N-(4-piperidin-1-ylphenyl)aminomethyl-2-(2-methylphenyl)benzoyl]methionine], the inhibition at 1 µM was 95%.

Same assay, conditions: at 1 × 10^-7 M

First: CSCC[C@H](NC(=O)c1ccc(CSc2ncnc3[nH]cnc23)cc1-c1ccccc1C)C(=O)O [Example 747]
Second: CSCC[C@H](NC(=O)c1ccc(CSc2ccc(C)cc2C)cc1-c1ccccc1C)C(=O)O [Example 741]
The “% inhibition of farnesyltransferase” value of the first is lower: 68% for the first, 89% for the second.

First: CCSCC(CC1CCCCC1)N(Cc1ccc(C(=O)N[C@@H](CCSC)C(=O)O)c(-c2ccccc2C)c1)CC(C)C (some centres unmarked) [Example 945, N-[4-N-(3-Cyclohexyl-1-ethylthiopropan-2-yl)-N-isobutylaminomethyl-2-(2-methylphenyl)benzoyl]-methionine]
Second: CSCC[C@H](NC(=O)c1ccc(COCc2cnc(C(C)(C)C)s2)cc1-c1ccccc1C)C(=O)[O-].[Li+] [Example 895]
The “% inhibition of farnesyltransferase” value of the first is lower: 80% for the first, 92% for the second.

Going from `CSCC[C@H](NC(=O)c1ccc(COCCc2ccc3ccccc3c2)cc1-c1ccccc1C)C(=O)[O-].[Li+]` [Example 593] to `COc1ccc(COCc2ccc(C(=O)N[C@@H](CCSC)C(=O)[O-])c(-c3ccccc3C)c2)cc1.[Li+]` [Example 935], the “% inhibition of farnesyltransferase” value falls from 86% to 72%.

With `CSCC[C@H](NC(=O)c1ccc(CCc2ccc(Oc3cccc(Cl)c3)cc2)cc1-c1ccccc1C)C(=O)O` [Example 859] the “% inhibition of farnesyltransferase” value was 86%.

Same assay, conditions: at 1 × 10^-7 M; read-out: % inhibition of farnesyltransferase

Going from `CCCC[C@H](CC1CCCCC1)NCc1ccc(C(=O)N[C@@H](CCSC)C(=O)O)c(-c2ccccc2C)c1` [Example 615, N-[4-(6-cyclohexylhexan-5-ylaminomethyl)-2-(2-methylphenyl)benzoyl]methionine Lithium Salt] to `CCSC[C@H](CC1CCCCC1)N(Cc1ccc(C(=O)N[C@@H](CCSC)C(=O)O)c(-c2ccccc2C)c1)C(C)=O` [Example 947, N-[4-N-acetyl-N-(3-Cyclohexyl-1-ethylthiopropan-2-yl)aminomethyl-2-(2-methylphenyl)-benzoyl]methionine], the inhibition at 0.1 µM falls from 94% to 79%.

Same assay, conditions: at 1 × 10^-8 M

First: CSCC[C@H](NC(=O)c1ccc(COCc2oc(-c3ccc(Cl)cc3)c(Cl)c2Cl)cc1-c1ccccc1C)C(=O)[O-].[Li+] [Example 829]
Second: CSCC[C@H](NC(=O)c1ccc(CCc2ccc(Oc3ccc(Cl)cc3)cc2)cc1-c1ccccc1C)C(=O)O [Example 860]
The “% inhibition of farnesyltransferase” value of the first is higher: 92% for the first, 85% for the second.

Going from `CCCCC(CCCC)OCc1ccc(C(=O)N[C@@H](CCSC)C(=O)[O-])c(-c2ccccc2C)c1.[Li+]` [Example 942] to `CSCC[C@H](NC(=O)c1ccc(COCCCC23CC4CC(CC(C4)C2)C3)cc1-c1ccccc1C)C(=O)[O-].[Li+]` [Example 599], the “% inhibition of farnesyltransferase” value rises from 58% to 86%.

In the case of `CSCC[C@H](NC(=O)c1ccc(CO[C@@H](CC2CCCCC2)CN2CCOCC2)cc1-c1ccccc1C)C(=O)O` [Example 885], the “% inhibition of farnesyltransferase” value is reported as 95%.

Same assay, conditions: at 1 × 10^-8 M; read-out: % inhibition of farnesyltransferase

Compared with `CSCC[C@H](NC(=O)c1ccc(CN(Cc2ccccc2)c2cccc(C(C)=O)c2)cc1-c1ccccc1C)C(=O)O` [Example 845, N-[4-N-(N-benzyl-N-(3-acetylphenyl)aninomethyl)-2-(2-methylphenyl)benzoyl]methionine lithium salt], `CSCC[C@H](NC(=O)c1ccc(CN(CCC2CCCCC2)Cc2cncs2)cc1-c1ccccc1C)C(=O)O` [Example 986] is higher in inhibition at 0.01 µM: 85% for the first, 95% for the second.

Same assay, conditions: read-out: % inhibition of farnesyltransferase

First: CSCC[C@H](NC(=O)c1ccc(CN(Cc2ccccc2)c2cccc([N+](=O)[O-])c2)cc1-c1ccccc1C)C(=O)O [Example 842, N-[4-(N-benzyl-N-(3-nitrophenyl)aminomethyl)-2-(2-methylphenyl)benzoyl]methionine lithium salt]
Second: CSCC[C@H](NC(=O)c1ccc(CN(C)CCC2CCCCC2)cc1-c1ccccc1C)C(=O)O [Example 608, N-[4-(N-(2-cyclohexylethyl)-N-methylaminomethyl)-2-(2-methylphenyl)benzoyl]methionine Lithium Salt]
The inhibition at 0.01 µM of the first is lower: 88% for the first, 91% for the second.

For `CSCC[C@H](NC(=O)c1ccc(CNC(CC2CCCCC2)C2CCCCC2)cc1-c1ccccc1C)C(=O)O` (some centres unmarked) [Example 616, N-[4-(1,2-dicyclohexylethylaminomethyl)-2-(2-methylphenyl)benzoyl]methionine Lithium Salt], the inhibition at 0.1 µM was 95%.
